Laboratory results published in patent publication US6534503B1, “Melanocortin receptor-3 ligands to treat sexual dysfunction” (Lion Bioscience AG, priority 1998, dated 2003).

Legend:
[1] = test system: Adult male Sprague-Dawley rats; test: Dose-response of HP-228 for inducing erections in rats; type: in vivo; settings: rat, IP
Description: This example describes a dose-response correlation for using HP-228 to induce erections in rats.
(§1) Adult male Sprague-Dawley rats weighing 220 to 250 g or adult male C57/BL6 mice (Harlan Laboratories; Indianapolis Ind.) were injected intraperitoneally (IP) with 1 ml/kg body weight HP-228 solution or PBS as a negative control. Concentrations of HP-228 were 0.45, 0.9, 1.8, 3.6 and 7.2 mg/ml/kg (n=4 to 6 animals). The animals were allowed 10 minutes to acclimate to the surroundings before observation. The animals were then observed for 60 minutes for penile erections not induced by grooming. Yawning, stretching, grooming behaviors were also recorded.

[2] = test system: male Sprague-Dawley rats; test: Effect of oxytocin receptor antagonist vasotocin on erectile effects in rats; type: in vivo; settings: rat
Text: (§2) In both examples, male Sprague-Dawley rats, about 200 to 225 g, were acclimated for 5 days in a reverse light:dark cycle room (dark 10 a.m. to 10 p.m.) before being aseptically ICV cannulated. Rats with indwelling ICV cannulae were housed one per cage. After surgery, 4 days were allowed for recovery and 10 days total were allowed for adaptation to the light cycle. Rats were caged individually after surgery and body weights at the time of treatment averaged 250 g. Otherwise, the procedure is essentially the same as in Example II.
Treatment was between 10 a.m. and 1 p.m. […] Vasotocin (Peninsula Laboratories, San Carlos Calif.) was administered ICV at 100 ng/rat. Oxytocin (Sigma, St. Louis Mo.) was administered ICV at 30 ng/rat (10 μl/rat PBS). Ten minutes later, IP injections of HP-228 or vehicle were given. HP-228 was administered IP at 2 mg/kg in 3 ml/kg PBS. One group of animals received ICV injections of vasotocin and oxytocin ICV injections of 5 μl/rat each at double concentrations for a total of 10 μl injected ICV. In this group, the rats received vasotocin first, followed by oxytocin.

[3] = test system: male Sprague-Dawley rats; test: Effect of dopamine receptor antagonist sulpiride on erectile effects in rats; type: in vivo; settings: rat
Text: as §2
Treatment was between 9:30 a.m. and noon. Each animal received an initial IP injection of vehicle (3 ml/kg PBS) or sulpiride. Sulpiride (Sigma) was administered IP at 50 mg/kg (6 ml/kg IP). Ten minutes later, the animals received a final IP injection of HP-228 or vehicle or a SC injection of apomorphine. HP-228 was administered IP at 2 mg/kg in 3 ml/kg PBS. Apomorphine (Sigma) was administered SC at 0.1 mg/kg (1 ml/kg sterile water).

[4] = test system: Rats; test: HP-228-mediated erectile response with MC-3 antagonist TRG 6601 #15—2 ICV in rats; type: in vivo; settings: rat, PBS ICV, HP-228 2 mg/kg/ml IP
Description: Rats were obtained and cannulated essentially as described in Example VII. Rats received a 10 μl injection ICV containing antagonist “TRG 6601 #15—2” or vehicle alone. The compound was administered as a 1 mg/ml solution in 5% EtOH/PBS at a dose of […]. Five minutes later, the rats were injected IP with either PBS (1 ml/kg) or HP-228 (2 mg/kg/ml). The animals were observed as in Example VII. Erections per hour and rate of animals responding are shown: […]

[5] = test system: Adult male rats; test: Induction of penile erections in rats after intraperitoneal injection, 60 minute observation; type: in vivo; settings: IP injection of compound alone, 60 min observation, n=6
Description: Adult male rats were housed 2 to 3 per cage and were acclimated to the standard vivarium light cycle (12 hr. light, 12 hr. dark), rat chow and water for a least a week prior to testing. All experiments were performed between 9 a.m. and noon and rats were placed in cylindrical, clear plexiglass chambers during the 60 minute observation period. Mirrors were positioned below the chambers to improve viewing.
Observations began 5 minutes after an intraperitoneal injection of either saline or compound. Two observers counted the number of grooming motions, stretches, yawns and spontaneously occurring penile erections not elicited by genital grooming, and then recorded them as they occurred for a total of 60 minutes. Each observer recorded behaviors of 6 rats at the same time. The observers were unaware of the treatment and animals were tested once, with n=6 in each group. HP-228 was used as a positive control for penile erections.
By comparison, IP injection with agonist TRG 2411 #203 alone (shown below) increased the average number of erections observed to 2.7.

[6] = test system: C57/BL6 mice; test: Dose-response of HP-228 for inducing erections in mice; type: in vivo; settings: mouse, IP
Description: as §1
This example describes a dose-response correlation for using HP-228 to induce erections in mice (n=3 to 5). Age-matched C57/BL6 mice (Harlan Laboratories; Indianapolis Ind.) weighing 20 to 25 g were injected (100 μl/mouse) intraperitoneally essentially as described above and observed.

[7] = test system: Sprague-Dawley rats; test: Association of MC-3 with erectile response: HP-228 IP with MC-3-specific antagonist ICV in rats; type: in vivo; settings: rat, HP-228 1.8 mg/kg IP, PBS ICV (no MC-3 antagonist), n=5
Description: Sprague-Dawley rats (n=5) received 1.8 mg/kg HP-228 or PBS via IP injection. The rats also received via ICV injection a dose of PBS or MC-3-specific antagonist at 10 μg/5 μl. […] After administration, the rats were observed as described above. All rats received an ICV injection followed by an IP injection 5 to 10 minutes later.
In the negative control rats, receiving only PBS, 0.3 erections per hour were observed. In the positive control rats, receiving HP-228 but no MC-3 antagonist, 3.8 erections per hour were observed.

[8] = test system: human subjects; settings: pilot phase I clinical studies (Dorr et al. 1996; Wessells et al. 1998); cited from earlier work
[9] = single agent plus PBS: oxytocin 30 ng/rat ICV, HP-228 2 mg/kg IP, vasotocin 100 ng/rat ICV
[10] = single agent plus PBS: apomorphine 0.1 mg/kg SC, HP-228 2 mg/kg IP, sulpiride 50 mg/kg IP

Substance	avg. erections observed/hour ([1]; 0.45 mg/ml/kg HP-228, 60 min observation) [erections/hour]	avg. erections observed/hour ([1]; 0.9 mg/ml/kg HP-228, 60 min observation) [erections/hour]	avg. erections observed/hour ([1]; 1.8 mg/ml/kg HP-228, 60 min observation) [erections/hour]	avg. erections observed/hour ([1]; 3.6 mg/ml/kg HP-228, 60 min observation) [erections/hour]	avg. erections observed/hour ([1]; 7.2 mg/ml/kg HP-228, 60 min observation) [erections/hour]	response rate, % of animals ([2]; oxytocin and HP-228 groups)	erections per hour [2, 9] [erections per hour]	responder rate of animals (rats responding out of rats) [2, 9]	response rate, % of animals ([3]; apomorphine and HP-228 groups) [%]	erections per hour [3, 10] [erections per hour]	rate of animals responding [3, 10]	erections per hour [4] [erections per hour]	rate of animals responding [4]	average erections observed per rat per hour [5]	avg. erections observed/hour ([6]; 25 μg/mouse HP-228) [erections/hour]	avg. erections observed/hour ([6]; 50 μg/mouse HP-228) [erections/hour]	avg. erections observed/hour ([6]; 100 μg/mouse HP-228) [erections/hour]	avg. erections observed/hour ([6]; 250 μg/mouse HP-228) [erections/hour]	erections per hour [7] [erections per hour]	penile erections in human subjects [8]
Ac-Nle-Gln-His-(D)Phe-Arg-(D)Trp-Gly-NH2 [HP-228]	2.80	2.60	3.67	7.00	5.75	88%-100%	4.9	7/8	100	7.3	5/5	4.7	6/6	4.8 erections per rat per hour	3.00	6.67	5.33	3.00	3.8	–
MELANOTAN-II	–	–	–	–	–	–	–	–	–	–	–	–	–	–	–	–	–	–	–	cause penile erections
